Experiments:
Type in all cases: in vivo
[1] = test system: Plutella xylostella; test: Example B8: Plutella xylostella (diamond back moth), artificial diet 24-well, eggs; details: 192 h, application rate of 200 ppm, 8 days after infestation, read-out: effect in at least one of the two categories (mortality or growth inhibition)
In short: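 Artificial diet in 24-well plates treated with aqueous dilutions of DMSO stock (10,000 ppm stock) and dried, then infested with Plutella eggs. Mortality and growth inhibition scored versus untreated samples 8 days after infestation.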

[2] = test system: Diabrotica balteata; test: Example B2: Diabrotica balteata (corn root worm), maize sprouts, L2 larvae; details: 96 h, application rate of 200 ppm, 4 days after infestation, read-out: control in at least one of the two categories (mortality or growth inhibition)
Experimental: Example B2: Diabrotica balteata (Corn Root Worm)
Maize sprouts placed onto an agar layer in 24-well microtiter plates were treated with aqueous test solutions prepared from 10,000 ppm DMSO stock solutions by spraying. After drying, the plates were infested with L2 larvae (6 to 10 per well). The samples were assessed for mortality and growth inhibition in comparison to untreated samples 4 days after infestation.
The following compounds gave an effect of at least 80% control in at least one of the two categories (mortality or growth inhibition) at an application rate of 200 ppm: […]

[3] = test system: Myzus persicae; test: Example B7: Myzus persicae (green peach aphid), intrinsic activity, sucrose solution 24-well; details: 120 h, application rate of 12.5 ppm, 5 days after infestation, read-out: control (mortality)
Text: Example B7: Myzus persicae (Green Peach Aphid). Intrinsic Activity
Test compounds prepared from 10,000 ppm DMSO stock solutions were applied by pipette into 24-well microtiter plates and mixed with sucrose solution. The plates were closed with a stretched Parafilm. A plastic stencil with 24 holes was placed onto the plate and infested pea seedlings were placed directly on the Parafilm. The infested plate was closed with a gel blotting paper and another plastic stencil and then turned upside down. The samples were assessed for mortality 5 days after infestation.
The following compounds gave an effect of at least 80% control at an application rate of 12.5 ppm: […]

[4] = test system: Chilo suppressalis; test: Example B1: Chilo suppressalis (striped rice stemborer), artificial diet, L2 larvae; details: 144 h, application rate of 200 ppm, 6 days after infestation, read-out: control in at least one of the three categories (mortality, anti-feedant effect, or growth inhibition)
In short: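 Artificial diet was treated with aqueous test solutions made from 10,000 ppm DMSO stocks, dried, then infested with L2 larvae (6-8 per well). Mortality, anti-feeding effect and growth inhibition were scored against untreated samples 6 days after infestation, and control was counted when any category exceeded untreated.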

[5] = test system: Spodoptera littoralis; test: Example B9: Spodoptera littoralis (Egyptian cotton leaf worm), cotton leaf discs, L1 larvae; details: foliar, 72 h, application rate of 200 ppm, 3 days after infestation, read-out: control in at least one of the three categories (mortality, anti-feedant effect, or growth inhibition)
In short: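 Cotton leaf discs on agar sprayed with aqueous test solutions from 10,000 ppm DMSO stocks, dried, then infested with five L1 larvae. Mortality, anti-feeding and growth inhibition scored against untreated samples 3 days after infestation.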

CC(NC(=O)Nc1cc(OC(F)(F)C(F)F)c(Cl)cc1Cl)c1nccnc1-c1ncccn1 (stereo not drawn) [Example P238, 1-[2,4-dichloro-5-(1,1,2,2-tetrafluoroethoxy)phenyl]-3-[1-(3-pyrimidin-2-ylpyrazin-2-yl)ethyl]urea]
≥ 80%: percent effect (mortality or growth inhibition) at 200 ppm [1] | percent control (mortality or growth inhibition) at 200 ppm [2] | mortality at 12.5 ppm [3] | percent control (mortality, anti-feedant effect or growth inhibition) at 200 ppm [4] | percent control (mortality, anti-feedant effect or growth inhibition) at 200 ppm [5]

Cc1nc([C@H](C)NC(=O)Nc2cc(OC(F)(F)C(F)F)c(Cl)cc2Cl)n(-c2ncccn2)n1 [Example P276, 1-[2,4-dichloro-5-(1,1,2,2-tetrafluoroethoxy)phenyl]-3-[(1S)-1-(5-methyl-2-pyrimidin-2-yl-1,2,4-triazol-3-yl)ethyl]urea]
≥ 80%: percent effect (mortality or growth inhibition) at 200 ppm [1] | percent control (mortality or growth inhibition) at 200 ppm [2] | mortality at 12.5 ppm [3] | percent control (mortality, anti-feedant effect or growth inhibition) at 200 ppm [4] | percent control (mortality, anti-feedant effect or growth inhibition) at 200 ppm [5]

C[C@H](NC(=O)Nc1cc(OC(F)(F)C(F)C(F)(F)F)c(Cl)cc1Cl)c1ncnn1-c1ncccn1 (stereo partly drawn) [Example P223, 1-[2,4-dichloro-5-(1,1,2,3,3,3-hexafluoropropoxy)phenyl]-3-[(1S)-1-(2-pyrimidin-2-yl-1,2,4-triazol-3-yl)ethyl]urea]
≥ 80%: percent effect (mortality or growth inhibition) at 200 ppm [1] | percent control (mortality or growth inhibition) at 200 ppm [2] | percent control (mortality, anti-feedant effect or growth inhibition) at 200 ppm [4] | percent control (mortality, anti-feedant effect or growth inhibition) at 200 ppm [5]

C[C@H](NC(=O)N1CCc2cc(C(F)(F)F)ccc21)c1ncnn1-c1ncccn1 [Example P57, N-[(1S)-1-(2-pyrimidin-2-yl-1,2,4-triazol-3-yl)ethyl]-5-(trifluoromethyl)indoline-1-carboxamide]
≥ 80%: percent effect (mortality or growth inhibition) at 200 ppm [1] | percent control (mortality or growth inhibition) at 200 ppm [2] | mortality at 12.5 ppm [3] | percent control (mortality, anti-feedant effect or growth inhibition) at 200 ppm [5]

C[C@H](NC(=O)Nc1cc(OC(F)(F)C(F)C(F)(F)F)c(Cl)cc1F)c1ncnn1-c1ncccn1 (stereo partly drawn) [Example P215, 1-[4-chloro-2-fluoro-5-(1,1,2,3,3,3-hexafluoropropoxy)phenyl]-3-[(1S)-1-(2-pyrimidin-2-yl-1,2,4-triazol-3-yl)ethyl]urea]
≥ 80%: percent effect (mortality or growth inhibition) at 200 ppm [1] | percent control (mortality or growth inhibition) at 200 ppm [2] | mortality at 12.5 ppm [3] | percent control (mortality, anti-feedant effect or growth inhibition) at 200 ppm [4] | percent control (mortality, anti-feedant effect or growth inhibition) at 200 ppm [5]

C[C@H](NC(=O)Nc1ccc(C(F)(F)F)cc1C(F)(F)F)c1ncnn1-c1ccc(C#N)cn1 [Example P13, 1-[2,4-bis(trifluoromethyl)phenyl]-3-[(1S)-1-[2-(5-cyano-2-pyridyl)-1,2,4-triazol-3-yl]ethyl]urea]
≥ 80%: percent effect (mortality or growth inhibition) at 200 ppm [1] | percent control (mortality or growth inhibition) at 200 ppm [2] | percent control (mortality, anti-feedant effect or growth inhibition) at 200 ppm [4] | percent control (mortality, anti-feedant effect or growth inhibition) at 200 ppm [5]

C[C@H](NC(=O)N(C)c1ccc(Cl)cc1Cl)c1ncnn1-c1ncccn1 [Example P114, 1-(2,4-dichlorophenyl)-1-methyl-3-[(1S)-1-(2-pyrimidin-2-yl-1,2,4-triazol-3-yl)ethyl]urea]
≥ 80%: percent effect (mortality or growth inhibition) at 200 ppm [1] | percent control (mortality or growth inhibition) at 200 ppm [2] | percent control (mortality, anti-feedant effect or growth inhibition) at 200 ppm [4] | percent control (mortality, anti-feedant effect or growth inhibition) at 200 ppm [5]

C[C@H](NC(=O)Nc1cc(OC(F)F)c(Cl)cc1Cl)c1ncnn1-c1ncccn1 [Example P272, 1-[2,4-dichloro-5-(difluoromethoxy)phenyl]-3-[(1S)-1-(2-pyrimidin-2-yl-1,2,4-triazol-3-yl)ethyl]urea]
≥ 80%: percent effect (mortality or growth inhibition) at 200 ppm [1] | percent control (mortality or growth inhibition) at 200 ppm [2] | mortality at 12.5 ppm [3] | percent control (mortality, anti-feedant effect or growth inhibition) at 200 ppm [4] | percent control (mortality, anti-feedant effect or growth inhibition) at 200 ppm [5]

C[C@H](NC(=O)Nc1cc(Cl)c(Cl)cc1Cl)c1ncnn1-c1ncccn1 [Example P43, 1-[(1S)-1-(2-pyrimidin-2-yl-1,2,4-triazol-3-yl)ethyl]-3-(2,4,5-trichlorophenyl)urea]
≥ 80%: percent effect (mortality or growth inhibition) at 200 ppm [1] | percent control (mortality or growth inhibition) at 200 ppm [2] | percent control (mortality, anti-feedant effect or growth inhibition) at 200 ppm [4] | percent control (mortality, anti-feedant effect or growth inhibition) at 200 ppm [5]

C[C@H](NC(=O)Nc1cc(C(F)(F)F)ccc1Cl)c1ncnn1-c1ncccn1 [Example P14, 1-[2-chloro-5-(trifluoromethyl)phenyl]-3-[(1S)-1-(2-pyrimidin-2-yl-1,2,4-triazol-3-yl)ethyl]urea]
≥ 80%: percent effect (mortality or growth inhibition) at 200 ppm [1] | percent control (mortality or growth inhibition) at 200 ppm [2] | percent control (mortality, anti-feedant effect or growth inhibition) at 200 ppm [4] | percent control (mortality, anti-feedant effect or growth inhibition) at 200 ppm [5]

CC(NC(=O)Nc1cc(OC(F)(F)C(F)F)c(Cl)cc1Cl)c1nccnc1-n1nccn1 (stereo not drawn) [Example P258, 1-[2,4-dichloro-5-(1,1,2,2-tetrafluoroethoxy)phenyl]-3-[1-[3-(triazol-2-yl)pyrazin-2-yl]ethyl]urea]
≥ 80%: percent effect (mortality or growth inhibition) at 200 ppm [1] | percent control (mortality or growth inhibition) at 200 ppm [2] | percent control (mortality, anti-feedant effect or growth inhibition) at 200 ppm [4]

C[C@H](NC(=O)Nc1cc(C(F)(F)F)c(Cl)cc1Br)c1ncnn1-c1ncccn1 [Example P48, 1-[2-bromo-4-chloro-5-(trifluoromethyl)phenyl]-3-[(1S)-1-(2-pyrimidin-2-yl-1,2,4-triazol-3-yl)ethyl]urea]
≥ 80%: percent effect (mortality or growth inhibition) at 200 ppm [1] | percent control (mortality or growth inhibition) at 200 ppm [2] | mortality at 12.5 ppm [3] | percent control (mortality, anti-feedant effect or growth inhibition) at 200 ppm [4] | percent control (mortality, anti-feedant effect or growth inhibition) at 200 ppm [5]

C[C@H](NC(=O)Nc1cc(C(F)(F)F)c(Cl)cc1Br)c1ncnn1-c1cnccn1 [Example P279, 1-[2-bromo-4-chloro-5-(trifluoromethyl)phenyl]-3-[(1S)-1-(2-pyrazin-2-yl-1,2,4-triazol-3-yl)ethyl]urea]
≥ 80%: percent effect (mortality or growth inhibition) at 200 ppm [1] | percent control (mortality or growth inhibition) at 200 ppm [2] | percent control (mortality, anti-feedant effect or growth inhibition) at 200 ppm [4] | percent control (mortality, anti-feedant effect or growth inhibition) at 200 ppm [5]

CC(C)Oc1cc(NC(=O)N[C@@H](C)c2ncnn2-c2ncccn2)c(Cl)cc1Cl [Example P236, 1-(2,4-dichloro-5-isopropoxy-phenyl)-3-[(1S)-1-(2-pyrimidin-2-yl-1,2,4-triazol-3-yl)ethyl]urea]
≥ 80%: percent effect (mortality or growth inhibition) at 200 ppm [1] | percent control (mortality or growth inhibition) at 200 ppm [2] | mortality at 12.5 ppm [3] | percent control (mortality, anti-feedant effect or growth inhibition) at 200 ppm [4] | percent control (mortality, anti-feedant effect or growth inhibition) at 200 ppm [5]

CC(NC(=O)Nc1ccc(Br)cc1OC(F)F)c1nccnc1-n1nccn1 (stereo not drawn) [Example P261, 1-[4-bromo-2-(difluoromethoxy)phenyl]-3-[1-[3-(triazol-2-yl)pyrazin-2-yl]ethyl]urea]
≥ 80%: percent effect (mortality or growth inhibition) at 200 ppm [1] | percent control (mortality or growth inhibition) at 200 ppm [2] | percent control (mortality, anti-feedant effect or growth inhibition) at 200 ppm [4] | percent control (mortality, anti-feedant effect or growth inhibition) at 200 ppm [5]

C[C@H](NC(=O)Nc1cc(C(F)(F)F)c(Cl)cc1Cl)c1ncnn1-c1ncc(C#N)s1 [Example P140, 1-[(1S)-1-[2-(5-cyanothiazol-2-yl)-1,2,4-triazol-3-yl]ethyl]-3-[2,4-dichloro-5-(trifluoromethyl)phenyl]urea]
≥ 80%: percent effect (mortality or growth inhibition) at 200 ppm [1] | percent control (mortality or growth inhibition) at 200 ppm [2] | percent control (mortality, anti-feedant effect or growth inhibition) at 200 ppm [4] | percent control (mortality, anti-feedant effect or growth inhibition) at 200 ppm [5]

C[C@@H](NC(=O)Nc1cc(OC(F)(F)C(F)F)c(Cl)cc1Cl)c1nccnc1-c1ncccn1 [Example P136, 1-[2,4-dichloro-5-(1,1,2,2-tetrafluoroethoxy)phenyl]-3-[(1R)-1-(3-pyrimidin-2-ylpyrazin-2-yl)ethyl]urea]
≥ 80%: percent effect (mortality or growth inhibition) at 200 ppm [1] | percent control (mortality or growth inhibition) at 200 ppm [2] | percent control (mortality, anti-feedant effect or growth inhibition) at 200 ppm [4]
